Laboratory results published in US12378211B2, “Carbonic anhydrase inhibitors and antibiotics against multidrug resistant bacteria” (Purdue Research Foundation, priority 2018, dated 2025).
In brackets after ≈: the same amount, converted by molar mass. Like-named read-outs stand apart in the source and are kept apart here. Each block holds one compound with its values, some of them ahead of it.

Experiments:
[1] = tested on: Enterococcus faecalis-S613 HM-334; assay: MIC in presence of 4% human serum albumin; format: cell-based; settings: Enterococcus; TSB supplemented with 4% human serum albumin; read-out: MIC
Experimental: The minimum inhibitory concentrations (MICs) of CAIs were tested against vancomycin resistant Enterococcus faecalis—S613 HM 334 strain as per the guidelines provided by the Clinical and Laboratory Standards Institute (CLSI). The selected strain was streaked on Tryptic Soy Agar (TSA) plate and let grow for 24 hours at 37° C. Afterwards, a bacterial solution equivalent to 0.5 McFarland standard was prepared and diluted in tryptone soy broth (TSB) supplemented with 4% human serum albumin (HAS) to achieve a bacterial concentration of about 5×10^5 CFU/mL and seeded in 96-well well plates. Compounds and control drugs were added in the first row of the 96-well plates and serially diluted along the plates. Plates were then incubated aerobically at 37° C. for 18-20 hours. MICs reported in table (6) are the minimum concentration of the compounds/control drugs that could inhibit completely the visual growth of the bacteria.

[2] = tested on: Enterococcus faecalis—S613 HM-334; assay: MIC of CAIs in BHIB and TSB; format: cell-based
Experimental: The minimum inhibitory concentrations (MICs) of CAIs were tested against clinical isolates of vancomycin sensitive and vancomycin resistant Enterococci strains as per the guidelines provided by the Clinical and Laboratory Standards Institute (CLSI). The selected strains of Enterococci were streaked on Tryptic Soy Agar (TSA) plates and let grow for 24 hours at 37° C. Afterwards, a bacterial solution equivalent to 0.5 McFarland standard was prepared and diluted in tryptone soy broth (TSB) or brain heart infusion broth (BHIB) to achieve a bacterial concentration of about 5×10^5 CFU/mL and seeded in 96-well well plates. Compounds and control drugs were added in the first row of the 96-well plates and serially diluted along the plates. Plates were then incubated aerobically at 37° C. for 18-20 hours. MICs reported in Table 5 are the minimum concentration of the compounds/control drugs that could inhibit completely the visual growth of the bacteria. The MIC values of CAIs against the tested VRE strains were higher in BHIB than in TSB. This may be due to binding of these drugs to proteins. […] They inhibited the VRE strains at MIC values ranging from 1 to 4 μg/mL.

[3] = tested on: Enterococcus fecalis Strain SF 24397 NR31970; assay: MIC of CAIs in BHIB and TSB; format: cell-based
Experimental: (§1) The minimum inhibitory concentrations (MICs) of CAIs were tested against clinical isolates of vancomycin sensitive and vancomycin resistant Enterococci strains as per the guidelines provided by the Clinical and Laboratory Standards Institute (CLSI). The selected strains of Enterococci were streaked on Tryptic Soy Agar (TSA) plates and let grow for 24 hours at 37° C. Afterwards, a bacterial solution equivalent to 0.5 McFarland standard was prepared and diluted in tryptone soy broth (TSB) or brain heart infusion broth (BHIB) to achieve a bacterial concentration of about 5×10^5 CFU/mL and seeded in 96-well well plates. Compounds and control drugs were added in the first row of the 96-well plates and serially diluted along the plates. Plates were then incubated aerobically at 37° C. for 18-20 hours. MICs reported in Table 5 are the minimum concentration of the compounds/control drugs that could inhibit completely the visual growth of the bacteria.

[4] = tested on: Enterococcus faecium Patient #2-1-NR-31909; assay: MIC of CAIs in BHIB and TSB; format: cell-based
Experimental: as §1

[5] = tested on: Enterococcus faecium E417-HM-965; assay: MIC of CAIs in BHIB and TSB; format: cell-based
Experimental: as §1

[6] = tested on: Bifidobacterium longum subsp. Longum—44B HM 845; assay: MIC against human normal gut microbiota; format: cell-based; settings: Bifidobacterium longum, 48 h
Experimental: (§2) Three different bacterial strains were used in this experiment; Bifidobacterium (anaerobic Gram positive bacteria), Bacteroides (anaerobic Gram negative bacteria) and Lactobacillus (microaerophilic Gram positive bacteria). Bifidobacterium and Bacteroides were first grown for 48 hours at 37° C., anaerobically using brain heart infusion supplemented (BHIS) agar (Brain heart infusion agar supplemented with hemin, vitamin K and L-cysteine). Lactobacillus was cultivated on MRS agar and incubated in presence of 5% CO2 for 48 hours at 37° C. Each bacterium was suspended in phosphate buffered saline (PBS) to produce a suspension with optical density that matches 0.5 McFarland standard and diluted in brain heart infusion supplemented broth (for Bifidobacterium and Bacteroides) or in MRS broth (for Lactobacillus) to achieve bacterial concentration of approximately 5×10^5 CFU/ml. Bacteria were then seeded in 96-well plates containing serial dilutions of the compounds and incubated as mentioned previously for 48 hours.

[7] = tested on: Bacteroides fragilis—CL07T00C01 HIM-709; assay: MIC against human normal gut microbiota; format: cell-based; settings: Bacteroides, 48 h
Experimental: as §2

[8] = tested on: Lactobacillus casei ATCC 334; assay: MIC against human normal gut microbiota; format: cell-based; settings: Lacticaseibacillus casei, ATCC334, 48 h
Experimental: as §2

[9] = tested on: Bifidobacterium breve—JCP7499 HIM 1120; assay: MIC against human normal gut microbiota; format: cell-based; settings: Bifidobacterium, 48 h
Experimental: as §2

[10] = tested on: Bacteroides dorei—CL02T12C06 HM-719; assay: MIC against human normal gut microbiota; format: cell-based; settings: Bacteroides, 48 h
Experimental: as §2

[11] = tested on: Lactobacillus gasseri EX336960VC03 HIM-400; assay: MIC against human normal gut microbiota; format: cell-based; settings: Lactobacillus gasseri, 48 h
Experimental: as §2

[12] = tested on: MRSA NRS 384 (MRSA USA300); assay: MIC against Staphylococci, broth microdilution; format: cell-based, Staphylococcus aureus; settings: Staphylococcus aureus
Experimental: (§3) The minimum inhibitory concentrations (MICs) of the compounds and control drugs were determined using the broth microdilution method, according to guidelines outlined by the Clinical and Laboratory Standards Institute (CLSI) 1. Staphylococci strains were grown aerobically overnight on tryptone soya agar plates at 37° C., afterwards a bacterial solution equivalent to 0.5 McFarland standard was prepared and diluted in tryptone soy broth (TSB) to achieve a bacterial concentration of about 5×10^5 CFU/mL and seeded in 96-well well plates. Compounds and control drugs were added in the first row of the 96-well plates and serially diluted along the plates. Plates were then incubated aerobically at 37° C. for 18-20 hours. MICs reported in Table 2 are the minimum concentration of the compounds/control drugs that could inhibit completely the visual growth of the bacteria.

[13] = tested on: Enterococcus fecalis Strain SF 24397 NR31970; assay: MIC, broth microdilution in TSB; format: cell-based; settings: Enterococcus
Experimental: as §3, with “Institute (CLSI). Enterococci” for “Institute (CLSI) 1. Staphylococci”, “Table 1” for “Table 2”

[14] = tested on: Enterococcus faecalis—S613 HM-334; assay: MIC, broth microdilution in TSB; format: cell-based; settings: Enterococcus
Experimental: as §3, with “Institute (CLSI). Enterococci” for “Institute (CLSI) 1. Staphylococci”, “Table 1” for “Table 2”

[15] = tested on: Enterococcus faecium Patient #2-1-NR-31909; assay: MIC, broth microdilution in TSB; format: cell-based; settings: Enterococcus faecium
Experimental: as §3, with “Institute (CLSI). Enterococci” for “Institute (CLSI) 1. Staphylococci”, “Table 1” for “Table 2”

[16] = tested on: Enterococcus fecalis Strain SF 28073-NR31972; assay: MIC, broth microdilution in TSB; format: cell-based; settings: Enterococcus
Experimental: as §3, with “Institute (CLSI). Enterococci” for “Institute (CLSI) 1. Staphylococci”, “Table 1” for “Table 2”

[17] = tested on: Enterococcus fecalis Strain MMH594-NR31975; assay: MIC, broth microdilution in TSB; format: cell-based; settings: Enterococcus
Experimental: as §3, with “Institute (CLSI). Enterococci” for “Institute (CLSI) 1. Staphylococci”, “Table 1” for “Table 2”

[18] = tested on: Enterococcus faecium Patient #3-1 NR-31912; assay: MIC, broth microdilution in TSB; format: cell-based; settings: Enterococcus faecium
Experimental: as §3, with “Institute (CLSI). Enterococci” for “Institute (CLSI) 1. Staphylococci”, “Table 1” for “Table 2”

[19] = tested on: Enterococcus fecalis Strain SF24413 NR31971; assay: MIC, broth microdilution in TSB; format: cell-based; settings: Enterococcus
Experimental: as §3, with “Institute (CLSI). Enterococci” for “Institute (CLSI) 1. Staphylococci”, “Table 1” for “Table 2”

[20] = tested on: Enterococcus faecium E417-HM-965; assay: MIC, broth microdilution in TSB; format: cell-based; settings: Enterococcus faecium
Experimental: as §3, with “Institute (CLSI). Enterococci” for “Institute (CLSI) 1. Staphylococci”, “Table 1” for “Table 2”

[21] = tested on: Staphylococcus epidermidis NRS 101; assay: MIC against Staphylococci, broth microdilution; format: cell-based; settings: Staphylococcus epidermidis, NRS101
Experimental: as §3

[22] = Enterococcus, BHIIB, read-out: MIC
[23] = Enterococcus, TSB, Table 5, read-out: MIC
[24] = Enterococcus, BHIB, read-out: MIC
[25] = Enterococcus faecium, BHIB, read-out: MIC
[26] = Enterococcus faecium, TSB, Table 5, read-out: MIC
[27] = Enterococcus faecium, E417HM965, BHIB, read-out: MIC
[28] = Enterococcus faecium, E417HM965, TSB, Table 5, read-out: MIC

MIC [1]: > 256 µg/mL | MIC [2, 22]: > 128 µg/mL | MIC [2, 23]: 1 µg/mL | MIC [3, 24]: > 128 µg/mL | MIC [3, 23]: 2 µg/mL | MIC [4, 25]: 64 µg/mL | MIC [4, 26]: 2 µg/mL | MIC [5, 27]: 16 µg/mL | MIC [5, 28]: 2 µg/mL
SMILES: CCOc1ccc2nc(S(N)(=O)=O)sc2c1 [Ethoxzolamide]

MIC [1]: > 256 µg/mL | MIC [2, 22]: > 128 µg/mL | MIC [2, 23]: 1 µg/mL | MIC [3, 24]: > 128 µg/mL | MIC [3, 23]: 2 µg/mL | MIC [4, 25]: > 128 µg/mL | MIC [4, 26]: 8 µg/mL | MIC [5, 27]: 64 µg/mL | MIC [5, 28]: 4 µg/mL
SMILES: CC(=O)/N=c1/sc(S(N)(=O)=O)nn1C [Methazolamide]

SMILES: CN[C@H](CC(C)C)C(=O)N[C@H]1C(=O)N[C@@H](CC(N)=O)C(=O)N[C@H]2C(=O)N[C@H]3C(=O)N[C@H](C(=O)N[C@H](C(=O)O)c4cc(O)cc(O)c4-c4cc3ccc4O)[C@H](O)c3ccc(c(Cl)c3)Oc3cc2cc(c3O[C@@H]2O[C@H](CO)[C@@H](O)[C@H](O)[C@H]2O[C@H]2C[C@](C)(N)[C@H](O)[C@H](C)O2)Oc2ccc(cc2Cl)[C@H]1O [Vancomycin, reference compound]
MIC [6]: 8 µg/mL (≈ 5.52 µM) | MIC [7]: 64 µg/mL (≈ 44.2 µM) | MIC [8]: > 64 µg/mL | MIC [9]: 8 µg/mL (≈ 5.52 µM) | MIC [10]: 64 µg/mL (≈ 44.2 µM) | MIC [11]: > 64 µg/mL | MIC [12]: 1 µg/mL (≈ 0.69 µM) | MIC [13]: 2 µg/mL (≈ 1.38 µM) | MIC ([13]; read-out: MIC in TSB): 2 µg/mL (≈ 1.38 µM) | MIC [14]: > 64 µg/mL | MIC ([14]; read-out: MIC in TSB): > 64 µg/mL | MIC [15]: > 64 µg/mL | MIC ([15]; read-out: MIC in TSB): > 64 µg/mL | MIC [16]: > 64 µg/mL | MIC ([16]; read-out: MIC in TSB): > 64 µg/mL | MIC [17]: 2 µg/mL (≈ 1.38 µM) | MIC ([17]; read-out: MIC in TSB): 2 µg/mL (≈ 1.38 µM) | MIC [18]: > 64 µg/mL | MIC ([18]; read-out: MIC in TSB): > 64 µg/mL | MIC [19]: 32 µg/mL (≈ 22.1 µM) | MIC ([19]; read-out: MIC in TSB): 32 µg/mL (≈ 22.1 µM) | MIC ([20]; E417HM965): > 64 µg/mL | MIC ([20]; E417HM965, read-out: MIC in TSB): > 64 µg/mL | MIC [21]: 4 µg/mL (≈ 2.76 µM) | MIC ([2]; Enterococcus): > 128 µg/mL | MIC ([2]; TSB, Table 5): >128 µg/mL | MIC ([3]; Enterococcus): 2 µg/mL | MIC ([3]; TSB, Table 5): 2 µg/mL | MIC ([4]; Enterococcus faecium): > 128 µg/mL | MIC ([4]; TSB, Table 5): >128 µg/mL | MIC ([5]; Enterococcus faecium, E417HM965): > 128 µg/mL | MIC ([5]; TSB, Table 5): >128 µg/mL
